Measured values as given in publication PMC8126888 (RSC Medicinal Chemistry, 2020).
In brackets after ≈: the same amount, converted by molar mass. Where two headings read alike, the source gives them in different places.

Columns and labels:
in vitro [1] = conditions: human, HepG2 cells
[2] = system: Leishmania infantum MHOM/MA(BE)/67/ITMAP263 intracellular amastigotes; assay: microbe, parasite or virus in culture; conditions: Macrophage, in Mus musculus
[3] = system: primary peritoneal mouse macrophages (PMM); assay: cells; conditions: Macrophage
[4] = system: Trypanosoma cruzi, Tulahuen CL2, beta-galactosidase strain; assay: microbe, parasite or virus in culture
in vitro [5] = conditions: human, microsomes; for microsomal CLint at 0.5 μM: human liver microsomes
in vitro [6] = conditions: human
in vitro [7] = conditions: PAMPA
in vitro [8] = conditions: mouse, microsomes; for microsomal CLint at 0.5 μM: mouse liver microsomes
in vitro [9] = conditions: plasma
physchem [10] = assay: physchem
in vitro [11] = conditions: human, HFF-1 cells
[12] = system: L. donovani MHOM/SD/62/1SCL2D intracellular amastigotes; assay: microbe, parasite or virus in culture; conditions: Leishmania donovani, read-out: L. donovani MHOM/SD/62/1SCL2D intracellular amastigotes IC50
in vitro [13] = conditions: human, HepG2 cells; remark: listed apart in the source
in vitro [14] = conditions: human; for CC50 at 120 h: THP-1 cells differentiated with PMA
Vero = assay: cells; conditions: Chlorocebus sabaeus, read-out: Vero IC50
[15] = system: axenic L. don. amastigotes (MHOM/SD/62/1S-CL2, LdBOB); assay: microbe, parasite or virus in culture; conditions: Leishmania donovani, read-out: L. donovani MHOM/SD/62/1SCL2D axenic-cidal amastigotes IC50
THP-1 cells = conditions: 120 hours, Alamar Blue
[16] = system: primary peritoneal mouse macrophages (PMM); conditions: cytotoxicity to PMM; geometric mean of a minimum of two experiments ± standard error
[17] = system: Leishmania infantum (MHOM/MA/67/ITMAP-263) intracellular amastigotes in THP-1; conditions: THP-1 host cells, 120 hours
[18] = system: Leishmania infantum MHOM/MA(BE)/67/ITMAP263 intracellular amastigotes; conditions: intracellular amastigotes in PMM; geometric mean of a minimum of two experiments ± standard error
physchem [19] = conditions: HPLC, Ascentis Express RP Amide column
[20] = system: L. infantum MHOM/MA/67/ITMAP263 axenic Promastigotes; assay: microbe, parasite or virus in culture; conditions: Leishmania infantum, read-out: L. infantum MHOM/MA/67/ITMAP263 axenic Promastigotes IC50
in vitro [21] = conditions: human, HepG2 cells; remark: listed apart in the source
in vitro [22] = conditions: human, HFF-1 cells; remark: listed apart in the source
in vitro [23] = conditions: PAMPA; remark: listed apart in the source
[24] = system: Leishmania infantum (MHOM/MA/67/ITMAP-263) intracellular amastigotes in THP-1; assay: microbe, parasite or virus in culture; conditions: THP-1, 120 h, read-out: Intracellular activity pIC50 L. inf. in THP-1 (converted)
[25] = versus the preceding analogue
[26] = 6 h incubation in mouse plasma
[27] = read-out: L. Inf. pIC50, from L. infantum intracellular amastigote IC50 (converted)
[28] = PBS, pH 7.4, aqueous buffer, kinetic from dmso stock
[29] = MRC5, read-out: T. cruzi Tulahuen C4 (LacZ) IC50

In the case of `COc1ccc(C(=O)N2CCOCC2)cc1S(=O)(=O)N(Cc1ccc(F)cc1)Cc1ccc(C(F)(F)F)nc1` [DNDI0003389644], the CC50 (in vitro [1]) is reported as > 64 µM, the “KS PBS - pH 2 (ug/mL)” value is reported as 3.79 ug/mL and the IC50 [2, 27] is reported as 1.74 µM. For the same compound, the IC50 ([2]; read-out: L. infantum MHOM/MA(BE)/67/ITMAP263 intracellular amastigotes IC50 (uM), intracellular amastigotes) was 1.74 µM, the IC50 ([3]; read-out: PMM IC50 (uM)) was > 64 µM and the IC50 ([4]; MRC5, read-out: T. cruzi Tulahuen C4 (LacZ) IC50 (uM)) was 3.39 µM. For the same compound, the microsomal CLint at 0.5 μM (in vitro [5]; pH 7.4, HLM CLint (uL/min/mg)) was 190 µL/min/mg, the CC50 at 3 days (in vitro [6]) was > 64 µM and the Papp (in vitro [7]) was 10 ×10⁻⁶ cm/s. The microsomal CLint at 0.5 μM (in vitro [8]; pH 7.4, MLM CLint (uL/min/mg)) was 163 µL/min/mg, the fraction unbound (in vitro [9]; PPB (%)) was 0.0409 and the solubility kinetic (physchem [10]; [28]) was 3.32 µg/mL (≈ 5.85 µM). The CC50 (in vitro [11]) was 36.9 µM.
With `COc1ccc(S(=O)(=O)N2Cc3ccccc3CC2C(=O)NCc2ccccc2)cc1` (stereo not drawn) [DNDI0003338988] the IC50 [12] was > 50 µM, the CC50 (in vitro [13]) was > 50 µM and the CC50 at 120 h (in vitro [14]) was > 50 µM. For the same compound, the IC50 (Vero) was 29 µM.
For `O=S(=O)(c1ccc2nncn2c1)N(Cc1cccc(F)c1)c1ccc2c(c1)OCO2` [DNDI0003321886], the IC50 [12] was > 50 µM, the CC50 (in vitro [13]) was > 50 µM and the CC50 at 120 h (in vitro [14]) was > 50 µM. It also gave an IC50 (Vero) of 35 µM.
For `CCCCCOc1cc(C)c(C)cc1S(=O)(=O)NC1CCCC1` [DNDI0002550647], the IC50 [12] was 13 µM, the “KS PBS - pH 2” value was 0.74 ug/mL and the CC50 (in vitro [13]) was > 50 µM. The IC50 ([2]; read-out: L. Inf. pIC50 (converted)) was 1.05 µM, the IC50 ([2]; read-out: L. infantum MHOM/MA(BE)/67/ITMAP263 intracellular amastigotes IC50) was 1.05 µM and the IC50 ([3]; read-out: PMM IC50) was 45.2 µM. It also gave an IC50 [4, 29] of 7.86 µM, a microsomal CLint at 0.5 μM (in vitro [5]; pH 7.4, HLM CLint) of 567 µL/min/mg and an IC50 [15] of 12 µM. The CC50 at 3 days (in vitro [6]) was 37 µM, the CC50 at 120 h (in vitro [14]) was > 50 µM and the microsomal CLint at 0.5 μM (in vitro [8]; pH 7.4, MLM CLint) was 416 µL/min/mg. It also gave a solubility kinetic (physchem [10]; [28]) of 0.56 µg/mL (≈ 1.65 µM).
With `COc1ccc(OC)c(S(=O)(=O)N(Cc2ccc(F)cc2)Cc2oc(C)nc2C)c1` [SI51] the “pIC50 Cytotoxicity THP-1” value (THP-1 cells) was < 4.19, the “PMM pIC50” value [16] was < 4.19 and the “Intracellular activity pIC50 L. inf. in THP-1” value [17] was 4.51±0.03. For the same compound, the “L. inf. pIC50” value [18] was 5.63±0.04.
For `COc1ccc(OC)c(S(=O)(=O)N(Cc2ncccn2)Cc2ncccn2)c1` [DNDI0003370115], the chromatographic logD (physchem [19]; pH 7.4, eLogD, experimental) was 1.3, the IC50 [20] was > 64 µM and the IC50 [2, 27] was > 64 µM. The IC50 ([2]; read-out: L. infantum MHOM/MA(BE)/67/ITMAP263 intracellular amastigotes IC50, intracellular amastigotes) was > 64 µM, the IC50 ([3]; read-out: PMM IC50) was > 64 µM and the IC50 [4, 29] was 61.4 µM. The microsomal CLint at 0.5 μM (in vitro [5]; pH 7.4, HLM CLint) was 17 µL/min/mg, the CC50 (in vitro [21]) was > 64 µM and the CC50 at 3 days (in vitro [6]) was > 64 µM. The microsomal CLint at 0.5 μM (in vitro [8]; pH 7.4, MLM CLint) was 67 µL/min/mg, the CC50 (in vitro [22]) was > 64 µM and the Papp (in vitro [23]) was 25.1 ×10⁻⁶ cm/s.
For `COc1ccc(C(=O)N2CCOCC2)cc1S(=O)(=O)N(Cc1ccccc1)Cc1cnc(C(F)(F)F)nc1` [Compound 47], the chromatographic logD (physchem [19]; pH 7.4, elog D, HPLC measured log D, pH 7.4) was 3.5, the IC50 [24] was > 64.6 µM and the IC50 ([2]; read-out: L. inf. pIC50, intracellular amastigotes in PMM (converted), geometric mean of a minimum of two experiments ± standard error) was 4.47 µM. For the same compound, the “improvement in the in vitro mouse clearance” value [25] was 4 fold, the IC50 ([3]; read-out: PMM pIC50 (converted)) was > 64.6 µM and the microsomal CLint at 0.5 h, 0.5 µM (in vitro [5]; pH 7.4, Microsome Clint,u Human, Table 2, intrinsic in vitro clearance, liver microsomes) was 73 µL/min/mg. For the same compound, the “Mouse plasma stability (6 h)” value [26] was 42 % remaining, the IC50 at 120 h (in vitro [14]; PMA-differentiated THP-1 cells) was > 64.6 µM and the microsomal CLint at 0.5 h, 0.5 µM (in vitro [8]; pH 7.4, Microsome Clint,u Mouse, Table 2, intrinsic in vitro clearance, liver microsomes) was 152 µL/min/mg. For the same compound, the fraction unbound (in vitro [9]; Plasma protein binding (PPB)) was 0.117, the solubility kinetic (physchem [10]; aqueous medium, pH 2.0, pH 2) was 11.3 µg/mL (≈ 20.5 µM) and the solubility kinetic (physchem [10]; aqueous medium, pH 7.4, pH 7.4) was 6.2 µg/mL (≈ 11.3 µM).
With `COc1ccc(CN(c2ccc3c(c2)OCO3)S(=O)(=O)c2ccc3nncn3c2)cc1` [DNDI0003321888] the IC50 [12] was > 50 µM, the CC50 (in vitro [13]) was > 50 µM and the CC50 at 120 h (in vitro [14]) was > 50 µM. For the same compound, the IC50 (Vero) was > 50 µM.
